# Where two headings read alike, the source gives them in different places.
# Key:
# RBP4 = RBP4 (Homo sapiens, UniProt P02753); test: RBP4 scintillation proximity assay; format: binding; conditions: for binding to RBP4 (competition binding): purified human RBP4, 10 nM 3H-retinol radioligand
# [1] = Liver microsomal metabolic stability, rat; format: in vitro ADME; conditions: 10 μM, 30 min
# [2] = Liver microsomal metabolic stability, human; format: in vitro ADME; conditions: 10 μM, 30 min
# [3] = Liver microsomal metabolic stability, mouse; format: in vitro ADME; conditions: 10 μM, 30 min
# serum RBP4 = conditions: mice; cited from earlier work
# [4] = lipophilic ligand efficiency: RBP4 SPA pIC50 − cLog P
Compound,binding to RBP4 (competition binding) (RBP4),LLE (RBP4; [4]),other results
"O=C(O)c1ccccc1NC(=O)N1CCC(c2ccccc2C(F)(F)F)CC1 [Compound 3, reference compound]",–,–,Microsomal Stability (% remaining) RLM [1]: 85 % remaining
"Cn1nc(C(=O)N2CCC(c3ccccc3C(F)(F)F)CC2)c2ccccc21 [Compound 12, (1-Methyl-1H-indazol-3-yl)(4-(2-(trifluoromethyl)phenyl)-piperidin-1-yl)methanone]",–,4.56,Microsomal Stability (% remaining) HLM [2]: 0.7 % remaining; Microsomal Stability (% remaining) MLM [3]: 0.2 % remaining; Microsomal Stability (% remaining) RLM [1]: 0.0 % remaining
Cc1cc(C(=O)O)nc(N2C[C@H]3CC(c4ccccc4C(F)(F)F)C[C@H]3C2)n1 (stereo partly shown) [Compound 5],–,–,serum RBP4 lowering (serum RBP4): 90%
"COc1ccc2[nH]nc(C(=O)N3CCC(c4ccccc4C(F)(F)F)CC3)c2c1 [Compound 17, (5-Methoxy-1H-indazol-3-yl)(4-(2-(trifluoromethyl)phenyl)-piperidin-1-yl)methanone]",–,3.01,–
"CC(C)n1nc(C(=O)N2CCC(c3ccccc3C(F)(F)F)CC2)c2ccc(F)cc21 [Compound 20, (6-Fluoro-1-isopropyl-1H-indazol-3-yl)(4-(2-(trifluoromethyl)-phenyl)piperidin-1-yl)methanone]",–,–,LLE (RBP4): 2.03

# The next lines start with results.
binding to RBP4 (competition binding) (RBP4),LLE (RBP4; [4]),Compound,other results
weak RBP4 ligands,–,"CC/C=C\C/C=C\C/C=C\C/C=C\C/C=C\C/C=C\CCC(=O)O [docosahexaenoic acid, reference compound]",–
weak RBP4 ligands,–,"CCCCC/C=C\C/C=C\CCCCCCCC(=O)O [linoleic acid, reference compound]",–
–,5.89,"N#Cc1ccc2nnc(C(=O)N3CCC(c4c(F)cccc4C(F)(F)F)CC3)n2c1 [Compound 64, 3-(4-(2-Fluoro-6-(trifluoromethyl)phenyl)piperidine-1-carbonyl)-[1,2,4]triazolo[4,3-a]pyridine-6-carbonitrile]",–
weak RBP4 ligands,–,"CCCCCCCC/C=C\CCCCCCCC(=O)O [oleic acid, reference compound]",–
weak RBP4 ligands,–,"CCCCCCCCCCCCCCCC(=O)O [palmitic acid, reference compound]",–
